The source of these data is US6362166B1, “Antipicornaviral compounds and methods for their use and preparation” (Agouron Pharmaceuticals, Inc., priority 1996, dated 2002).

Like-named read-outs stand apart in the source and are kept apart here.

In data set [1] the test system is HRV-14. Briefly: Antirhinoviral HI-HeLa Cell Culture Assay (Cell Protection Assay, XTT dye reduction). The note with it: HI-HeLa cells infected with HRV-14, m.o.i. 0.13; two days; XTT; read-out: EC50. The format is cell-based, human rhinovirus (HRV) serotype-14. As for the experimental part: In the Cell Protection Assay, the ability of compounds to protect cells against HRV infection was measured by the XTT dye reduction method. This method is described in Weislow, O. S., R. Kiser, D. L. Fine, J. Bader, R. H. Shoemaker, and M. R. Boyd, J. Natl. Cancer Inst. 1989, 81, 577-586, which is incorporated herein by reference.
(§1) HI-HeLa cells were infected with HRV-14 at a multiplicity of infection (m.o.i.) of 0.13 (virus particles/cell) or mock-infected with medium only. Infected or mock-infected cells were resuspended at 8×10^5 cells per mL and incubated with appropriate concentration of compounds of formulas I and II. Two days later, XTT/PMS was added to test plates and the amount of formazan produced was quantified spectrophotometrically at 450/650 nm. […] The therapeutic index (TI) was calculated by dividing the CC50 by the EC50.
(§2) All strains of human rhinovirus (HRV) for use in this assay were purchased from American Type Culture Collection (ATCC), except for HRV serotype-14, which was produced from the infectious cDNA clone, constructed and supplied to us by Dr. Roland Rueckert at the Institue for Molecular Virology, University of Wisconsin, Madison, Wisc. HRV stocks were propagated, and antiviral assays were perforemd in HI-HeLa cells (ATCC). Cells were grwon in Minimal Essential Medium, available from Life Technologies, with 10% fetal bovine serum.
The compounds were tested against control compounds WIN 51711, WIN 52084, and WIN 54954, all obtained from Sterling-Winthrop Pharmaceuticals, and control compound Pirodavir, obtained from Janssen Pharmaceuticals.

Data set [2] concerns the target T1, Recombinant Rhinovirus 3C protease (RVP) serotype-14 (Human rhinovirus 14, UniProt P03303).
T1 construct: Recombinant Rhinovirus 3C proteases from serotypes 14, 16, 2 or 89; made in house
Briefly: Inhibition of Rhinovirus Protease (fluorescence resonance energy transfer assay), serotype 14. The format is biochemical, human rhinovirus (HRV). The note with it: RVP serotype-14; for INHIB (percent inhibition): 10 minute preincubation with 50 nM RVP; for kobs/I: progress curves in enzyme start experiments; for Ki: 10 minute preincubation, substrate start, read-out: INHIB (Ki). As for the experimental part:
Stock solution (50 mM, in DMSO) of various compounds were prepared; dilutions were in the same solvent. […] Assays contained 2% DMSO, 50 mM tris pH 7.6, 1 mM EDTA, a compound at the indicated concentrations, approximately 1 μM substrate, and 50-100 nM protease. […] The kobs/I values were obtained from reactions initiated by addition of enzyme rather than substrate. RVP activity is measured in the fluorescence resonance energy transfer assay. […] In the uncleaved peptide, the EDANS fluorescence was quenched by the proximal DABCYL moeity. When the peptide was cleaved, the quenching was relieved, and activity was measured as an increase in fluorescence signal.
In the above table, all data is RVP serotype-14 unless otherwise noted in parentheses. All strains of human rhinovirus (HRV) were purchased from American Type Culture Collection (ATCC), except for serotype 14, which was produced from the infectious cDNA clone constructed and supplied to us by Dr. Roland Rueckert at the Institute for Molecular Virology, University of Wisconsin, Madison, Wisc. […] The data in the column designated kobs/I was measured from progress curves in enzyme start experiments.

Data set [3] concerns HI-HeLa cells. The data set can be described thus: Cytotoxicity in mock-infected HI-HeLa cells (antirhinoviral assay, XTT). The format is cell-based. On the procedure: as §1, §2
The mark [4] stands for this setting: mock-infected HI-HeLa cells, two days, XTT, read-out: CC50.

T1 sequence (P03303 1538-1719): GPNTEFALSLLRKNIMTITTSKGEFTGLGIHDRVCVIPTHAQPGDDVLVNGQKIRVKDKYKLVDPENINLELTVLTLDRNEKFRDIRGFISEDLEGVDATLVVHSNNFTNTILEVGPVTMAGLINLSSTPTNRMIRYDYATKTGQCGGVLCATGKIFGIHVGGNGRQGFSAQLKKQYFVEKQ

With `CC(C)C[C@H](NC(=O)OCc1ccccc1)C(=O)N[C@@H](Cc1ccccc1)C(=O)N[C@H](/C=C/C(=O)O)CCC(N)=O` [Compound 15, 3-(CBZ-L-Leu-L-Phe-L-Gln)-E-Propenoic Acid], the EC50 in data set [1] is above 100 µM. Also, in data set [2], the “INHIB (percent inhibition)” value is 55(50) percent and the kobs/I was determined as 27 M⁻¹ s⁻¹. In addition, the CC50 in data set [3] was above 100 µM.
As for `CCNC(=O)/C=C/[C@H](CCC(N)=O)NC(=O)[C@H](Cc1ccccc1)NC(=O)[C@H](CC(C)C)NC(=O)OCc1ccccc1` [Compound 6, N-Ethyl-3-(CBZ-L-Leu-L-Phe-L-Gln)-E-Propenamide], in data set [1], the EC50 was above 320 µM. Further, in data set [2], the Ki was 32 µM and the kobs/I is 350 M⁻¹ s⁻¹. In data set [3], the CC50 was above 320 µM.
Take `CC(C)C[C@H](NC(=O)OCc1ccccc1)C(=O)N[C@@H](Cc1ccccc1)C(=O)N[C@H](/C=C/c1ccno1)CCC(N)=O` [Compound 150]: the EC50 in data set [1] was above 320 µM. Moreover, in data set [2], the kobs/I turned out to be 573 M⁻¹ s⁻¹. Also, the cytotoxic concentration (CC50) in data set [3] (setting [4]) was above 320 µM.
Take `CCOC(=O)/C=C/[C@H](CCC(N)=O)NC(=O)[C@H](Cc1ccccc1)NC(=O)[C@H](CC(C)C)NC(=O)c1ccc(C(=O)NC)cc1` [Compound 129]: in data set [1], the EC50 was above 320 µM. Moreover, the kobs/I in data set [2] was 230,000 M-1 sec-1. In data set [3], this molecule gave a CC50 above 320 µM.
Regarding `CC(C)C[C@H](NC(=O)OCc1ccccc1)C(=O)N[C@@H](Cc1ccccc1)C(=O)N[C@H](/C=C/C(=O)N(C)c1ccccc1)CCC(N)=O` [Compound 60], the half-maximal effective concentration (EC50) in data set [1] was 158 µM. Further, in data set [2], the Ki is 5 µM and the kobs/I is 575 M⁻¹ s⁻¹. Besides, the CC50 in data set [3] is above 320 µM.
For the molecule `CCOC(=O)/C=C/[C@H](CCC(N)=O)NC(=O)[C@H](Cc1ccccc1)NS(=O)(=O)Cc1ccccc1` [Compound 32, Ethyl-3-[N-(Benzylsulfonyl)-L-Phe-L-Gln]-E-Propenoate], the EC50 in data set [1] amounted to 10 µM. Further, in data set [2], the kobs/I was determined as 280 M⁻¹ s⁻¹. In data set [3], the 50% cytotoxic concentration (CC50) was above 100 µM.
`CCOC(=O)/C=C/[C@H](CCC(N)=O)NC(=O)[C@H](Cc1ccccc1)NC(=O)OCc1ccccc1` [Compound 30, Ethyl-3-(CBZ-L-Phe-L-Gln)-E-Propenoate]: in data set [1], the concentration for a half-maximal effect (EC50) was 5.6 µM. In data set [2], the Ki worked out at 373 µM and the kobs/I was 430 M⁻¹ s⁻¹. Also, the half-maximal cytotoxic concentration (CC50) in data set [3] came out at 100 µM.
In the same order, the values of `CCOC(=O)/C=C/[C@H](CCC(N)=O)NC(=O)[C@H](Cc1ccc(F)cc1)NC(=O)[C@@H](NC(=O)SC1CCCC1)C(C)(C)C` [Compound 176, Ethyl-3-[Cyclopentylthiocarbonyl-L-α-(t-Butyl-Gly)-L-(4-F-Phe)-L-Gln]-E-Propenoate] are 0.14 µM, 0.48 µM, 240,000 M-1 sec-1 and above 100 µM.
Regarding `CCOC(=O)/C=C/[C@H](CCC(N)=O)NC(=O)[C@H](CC)NC(=O)[C@H](CC(C)C)NC(=O)OCc1ccccc1` [Compound 108], the concentration for a half-maximal effect (EC50) in data set [1] amounted to 6 µM. The kobs/I in data set [2] is recorded as 4,694 M-1 sec-1. Moreover, the CC50 in data set [3] is above 320 µM.
In the case of `CCOC(=O)/C=C/[C@H](CCC(N)=O)NC(=O)[C@H](Cc1ccc(F)cc1)NC(=O)[C@@H](NC(=O)SC1CCCC1)C(C)(C)Sc1ccc([N+](=O)[O-])cc1` [Compound 185], the EC50 in data set [1] is 0.5 µM. For the same molecule, the kobs/I in data set [2] is given as 600,000 M-1 sec-1. This molecule also had a CC50 in data set [3] above 100 µM.
Regarding `CCOC(=O)/C=C/[C@H](CCC(N)=O)NC(=O)CNC(=O)[C@H](CC(C)C)NC(=O)OCc1ccccc1` [Compound 99], the EC50 in data set [1] was 141 µM. The “INHIB (percent inhibition)” value in data set [2] was 10 (50) percent. Further, the CC50 in data set [3] is above 320 µM.
With `CC(C)C[C@H](NC(=O)OCc1ccccc1)C(=O)N[C@@H](Cc1ccccc1)C(=O)N[C@H](/C=C/C(=O)N1CCc2cc(Cl)ccc21)CCC(N)=O` [Compound 92], the EC50 in data set [1] was 5.6 µM. Also, the kobs/I in data set [2] came to 445 M⁻¹ s⁻¹. Also, the CC50 in data set [3] (setting [4]) amounted to 56 µM.
As to `CC(C)C[C@H](NC(=O)OCc1ccccc1)C(=O)N[C@@H](Cc1ccccc1)C(=O)N[C@H](/C=C/C(=O)n1cccc1)CCC(N)=O` [Compound 66], the EC50 in data set [1] was 1.4 µM. The kobs/I in data set [2] is 400,000 M-1 sec-1. For the same molecule, the half-maximal cytotoxic concentration (CC50) in data set [3] came out at 6.3 µM.
Take `CC(C)C[C@H](NC(=O)OCc1ccccc1)C(=O)N[C@@H](Cc1ccccc1)C(=O)N[C@H](/C=C/C(=O)c1ccc(C#N)cc1)CCC(N)=O` [Compound 80]: in data set [1], the EC50 was 50 µM. Further, in data set [2], the kobs/I was 200,000 M-1 sec-1. Moreover, the CC50 in data set [3] (setting [4]) was above 320 µM.
Take `CC(=O)N1CC/C(=C\[C@H](CCC(N)=O)NC(=O)[C@H](Cc2ccc(F)cc2)NC(=O)[C@H](CSc2ccccc2)NC(=O)SC2CCCC2)C1=O` [Compound 181]: in data set [1], the 50% effective concentration (EC50) was 0.1 µM. For the same molecule, in data set [2], the kobs/I is 1,000,000 M-1 sec-1. In data set [3], this molecule displayed a CC50 above 100 µM.
Regarding `COc1ccc(C(=O)/C=C/[C@H](CCC(N)=O)NC(=O)[C@H](Cc2ccccc2)NC(=O)[C@H](CC(C)C)NC(=O)OCc2ccccc2)cc1` [Compound 42], in data set [1], the EC50 was 22.4 µM. Besides, in data set [2], the kobs/I was 150,000 M-1 sec-1. The same molecule gave a CC50 in data set [3] of 100 µM.
Take `CCOC(=O)/C(C)=C/[C@H](CCC(N)=O)NC(=O)[C@H](Cc1ccc(C)cc1)NC(=O)[C@@H](NC(=O)SC1CCCC1)C(C)(C)C` [Compound 175, Ethyl-2-Methyl-3-[Cyclopentylthiocarbonyl-L-α-(t-Butyl-Gly)-L-(4-Me-Phe)-L-Gln]-E-Propenoate]: the EC50 in data set [1] turned out to be 0.18 µM. Also, the kobs/I in data set [2] was 124,000 M-1 sec-1. Further, in data set [3] (setting [4]), the CC50 is above 100 µM.
For `CCN(CC)c1ccc(C(=O)/C=C/[C@H](CCC(N)=O)NC(=O)[C@H](Cc2ccccc2)NC(=O)[C@H](CC(C)C)NC(=O)OCc2ccccc2)cc1` [Compound 43], the EC50 in data set [1] turned out to be 10 µM. In data set [2], the kobs/I is recorded as 4,500 M-1 sec-1. This molecule also yielded a cytotoxic concentration (CC50) in data set [3] of 18 µM.
In the same order, the values of `CCOC(=O)/C=C/[C@H](CCC(N)=O)NC(=O)[C@H](CC(C)C)NC(=O)[C@H](CC(C)C)NC(=O)OCc1ccccc1` [Compound 141] are 5.4 µM, 2,309 M-1 sec-1 and above 320 µM.
Take `CCOC(=O)/C=C/[C@H](CCC(N)=O)NC(=O)[C@H](Cc1ccc(OP(=O)(O)O)cc1)NC(=O)[C@H](CC(C)C)NC(=O)OCc1ccccc1` [Compound 105]: the EC50 in data set [1] stood at 14 µM. In data set [2], the kobs/I is reported as 1,200 M-1 sec-1. In addition, the CC50 in data set [3] (setting [4]) is above 320 µM.
For `CC(C)C[C@H](NC(=O)OCc1ccccc1)C(=O)N[C@@H](Cc1ccccc1)C(=O)N[C@H](/C=C/C(=O)c1ccc2c(c1)OCO2)CCC(N)=O` [Compound 46], the EC50 in data set [1] was determined as 3.2 µM. In addition, the kobs/I in data set [2] is 120,000 M-1 sec-1. For the same molecule, the CC50 in data set [3] is 45 µM.
For the molecule `CC(C)C[C@H](NC(=O)OCc1ccccc1)C(=O)N[C@@H](Cc1ccccc1)C(=O)N[C@H](/C=C/C(=O)OC1CCCC1)CCC(N)=O` [Compound 18, Cyclopentyl-3-(CBZ-L-Leu-L-Phe-L-Gln)-E-Propenoate], the EC50 in data set [1] is 0.64 µM. In data set [2], the Ki turned out to be 15.3 µM and the kobs/I is given as 7,700 M-1 sec-1. Further, the CC50 in data set [3] is above 100 µM.
